Measurements as given in patent US11807693B2 (priority 2014, dated 2023).
Like-named read-outs stand apart in the source and are kept apart here. Starred links: 1 amine or outer side, 2 acyl side, 3 side chain; linkers in the order of their positions; H or OH if unused. Non-standard residues stand in square brackets, D forms with d. Residues, ends and D or L forms follow the SMILES beside them. *: point of attachment. dBip = N[C@H](Cc1ccc(-c2ccccc2)cc1)C(=O)O; Oic = O=C(O)[C@@H]1C[C@@H]2CCCC[C@@H]2N1; Phe(4-Cl) = N[C@@H](Cc1ccc(Cl)cc1)C(=O)O; dPhe(4-Cl) = N[C@H](Cc1ccc(Cl)cc1)C(=O)O; Phe(4-I) = N[C@@H](Cc1ccc(I)cc1)C(=O)O; γGlu = O=C(O)[C@H](CCC(=O)[*:2])N[*:1]; d(β3hF) = N[C@@H](CC(=O)O)Cc1ccccc1; Igl = N[C@H](C(=O)O)C1Cc2ccccc2C1; NMeR = CN[C@@H](CCCNC(=N)N)C(=O)O; Palmitoyl = CCCCCCCCCCCCCCCC(=O)*; Tridecanoyl = CCCCCCCCCCCCC(=O)*; hArg = N=C(N)NCCCC[C@H](N)C(=O)O; Cha = N[C@@H](CC1CCCCC1)C(=O)O; NMeL = CN[C@@H](CC(C)C)C(=O)O; αMeL = CC(C)C[C@](C)(N)C(=O)O; β3hP = O=C(O)C[C@@H]1CCCN1; Nle = CCCC[C@H](N)C(=O)O; Orn = NCCC[C@H](N)C(=O)O; Dap = NC[C@H](N)C(=O)O; AEEA = NCCOCCOCC(=O)O; βAla = NCCC(=O)O

What was measured:
human APJ receptor = biological target: T1, human APJ receptor (Homo sapiens, UniProt P35414); assay: [35S] GTPγS assay, human APJ receptor; format: biochemical
T1 construct: expressed in transfected cells
T1 sequence (P35414 1-380): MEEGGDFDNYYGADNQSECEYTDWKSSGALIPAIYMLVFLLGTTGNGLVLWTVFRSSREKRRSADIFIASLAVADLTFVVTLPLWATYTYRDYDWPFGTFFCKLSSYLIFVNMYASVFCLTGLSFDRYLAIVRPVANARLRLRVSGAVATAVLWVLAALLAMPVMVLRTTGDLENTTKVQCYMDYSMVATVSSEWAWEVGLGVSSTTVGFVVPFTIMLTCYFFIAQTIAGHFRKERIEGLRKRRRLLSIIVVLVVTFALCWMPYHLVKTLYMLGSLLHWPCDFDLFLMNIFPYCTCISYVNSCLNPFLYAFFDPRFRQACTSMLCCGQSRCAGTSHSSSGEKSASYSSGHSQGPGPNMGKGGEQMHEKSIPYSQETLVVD

[1] = In vitro stability in rat plasma; format: in vitro ADME
Procedure, shortened: (§1)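 Stability was followed for 4 hr at 37° C. after spiking peptides (5 μM final) into rat plasma and tissue homogenates. Methanol quench with internal standard preceded high resolution LC-MS.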

[2] = In vitro stability in rat kidney homogenate; format: in vitro ADME; details: rat, tissue homogenate
Procedure, shortened: as §1

[3] = In vitro stability in rat liver homogenate; format: in vitro ADME; details: tissue homogenate
Procedure, shortened: as §1

rat APJ receptor = biological target: T2, rat APJ receptor (Rattus norvegicus, UniProt Q9JHG3); assay: [35S] GTPγS assay, rat APJ receptor; format: biochemical
T2 construct: expressed in transfected cells
T2 sequence (Q9JHG3 1-377): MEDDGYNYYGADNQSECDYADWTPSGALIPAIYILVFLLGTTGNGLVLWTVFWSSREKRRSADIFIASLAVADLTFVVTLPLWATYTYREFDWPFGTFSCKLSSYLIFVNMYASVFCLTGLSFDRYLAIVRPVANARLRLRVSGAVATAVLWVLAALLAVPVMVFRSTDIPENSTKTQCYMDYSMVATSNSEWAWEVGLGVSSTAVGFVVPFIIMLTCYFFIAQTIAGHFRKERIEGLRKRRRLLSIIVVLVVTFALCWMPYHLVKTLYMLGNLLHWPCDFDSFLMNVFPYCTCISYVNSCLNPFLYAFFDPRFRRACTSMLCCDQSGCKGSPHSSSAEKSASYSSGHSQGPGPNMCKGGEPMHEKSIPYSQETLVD
Protocol: The membranes were incubated with modified peptides in the assay buffer. […] Bound [^35S] GTPγS was separated from free radiolabel by filtration. The filter bound radioactivity was determined by liquid scintillation counting.

[4] = Table 16, read-out: EC50 Rat APJ Receptor
[5] = rat APJ receptor, read-out: EC50 Rat APJ Receptor

| Structure (SMILES) | EC50 (human APJ receptor; Table 16) [nM] | remaining at 4 h, 5 μM [1] [%] | remaining at 4 h, 5 μM [2] [%] | remaining at 4 h, 5 μM [3] [%] | EC50 (human APJ receptor; human APJ receptor) [nM] | EC50 (rat APJ receptor; [4]) [nM] | EC50 (rat APJ receptor; [5]) [nM] |
| --- | --- | --- | --- | --- | --- | --- | --- |
| CCCCCCCCCCCCC(=O)N[C@@H](CCC(=O)NCCOCCOCC(=O)NCCOCCOCC(=O)N[C@@H](CCC(N)=O)C(=O)N[C@@H](CCCNC(=N)N)C(=O)N1CCC[C@H]1C(=O)N(C)[C@@H](CCCNC(=N)N)C(=O)N[C@@](C)(CC(C)C)C(=O)N[C@@H](CO)C(=O)N[C@@H](Cc1c[nH]cn1)C(=O)N[C@@H](CCCCN)C(=O)NCC(=O)N1[C@H](C(=O)N[C@@H](CCCC)C(=O)N[C@@H](Cc2ccc(Cl)cc2)C(=O)O)C[C@@H]2CCCC[C@@H]21)C(=O)O [compound 389] ({Tridecanoyl-γGlu-AEEA-AEEA}-QRP[NMeR][αMeL]SHKG[Oic][Nle][Phe(4-Cl)]-OH) | 0.196 | < 1 | 4 | < 1 | – | – | – |
| CCCCCCCCCCCCC(=O)N[C@@H](CCC(=O)NCCOCCOCC(=O)NCCOCCOCC(=O)N[C@@H](CCCC)C(=O)N[C@H](CCCNC(=N)N)C(=O)N[C@@H](CCC(N)=O)C(=O)N[C@@H](CCCCNC(=N)N)C(=O)N1CCC[C@H]1C(=O)N[C@H](CCCNC(=N)N)C(=O)N(C)[C@@H](CC(C)C)C(=O)N[C@@H](C)C(=O)N[C@@H](Cc1c[nH]cn1)C(=O)N[C@@H](CCCCN)C(=O)NCC(=O)N1[C@H](C(=O)N[C@@H](Cc2ccc(I)cc2)C(=O)N2CCC[C@H]2C(=O)N[C@H](Cc2ccc(-c3ccccc3)cc2)C(=O)O)C[C@@H]2CCCC[C@@H]21)C(=O)O [compound 320] ({Tridecanoyl-γGlu-AEEA-AEEA}-[Nle][dR]Q[hArg]P[dR][NMeL]AHKG[Oic][Phe(4-I)]P[dBip]-OH) | – | > 90 | 73.4 | 86.5 | 17.8 | – | – |
| CCCCCCCCCCCCC(=O)N[C@@H](CCC(=O)NCCOCCOCC(=O)NCCOCCOCC(=O)N[C@@H](CCC(N)=O)C(=O)N[C@@H](CCC(=O)O)C(=O)N1CCC[C@H]1C(=O)N(C)[C@@H](CCCNC(=N)N)C(=O)N[C@@H](CC(C)C)C(=O)N[C@@H](CO)C(=O)N[C@@H](Cc1c[nH]cn1)C(=O)N[C@@H](CCCCN)C(=O)NCC(=O)N1CCC[C@H]1C(=O)N[C@@H](CCCC)C(=O)N1CCC[C@H]1C(=O)N[C@@H](Cc1ccc(Cl)cc1)C(=O)O)C(=O)O [compound 475] ({Tridecanoyl-γGlu-AEEA-AEEA}-QEP[NMeR]LSHKGP[Nle]P[Phe(4-Cl)]-OH) | 10.3 | 33 | – | < 1 | – | 35.8 | – |
| CCCCCCCCCCCCC(=O)N[C@@H](CCC(=O)NCCOCCOCC(=O)NCCOCCOCC(=O)N[C@H](CCC(N)=O)C(=O)N[C@@H](CCCNC(=N)N)C(=O)N1CCC[C@H]1C(=O)N(C)[C@@H](CCCNC(=N)N)C(=O)N[C@@](C)(CC(C)C)C(=O)N[C@@H](CO)C(=O)N[C@@H](Cc1c[nH]cn1)C(=O)N[C@@H](CCCCN)C(=O)NCC(=O)N1[C@H](C(=O)N[C@@H](CCCC)C(=O)N2CCC[C@H]2C(=O)N[C@@H](Cc2ccc(Cl)cc2)C(=O)O)C[C@@H]2CCCC[C@@H]21)C(=O)O [compound 386] ({Tridecanoyl-γGlu-AEEA-AEEA}-[dQ]RP[NMeR][αMeL]SHKG[Oic][Nle]P[Phe(4-Cl)]-OH) | 0.0934 | 58 | 4 | 6 | – | – | – |
| CC(=O)N[C@@H](CCCCNC(=N)N)C(=O)N[C@H](CCCNC(=N)N)C(=O)N[C@@H](CCC(N)=O)C(=O)N[C@@H](CCC(=O)O)C(=O)N1CCC[C@H]1C(=O)N[C@H](CCCNC(=N)N)C(=O)N(C)[C@@H](CC(C)C)C(=O)N[C@@H](CO)C(=O)N[C@@H](Cc1c[nH]cn1)C(=O)N[C@@H](CCCCN)C(=O)NCC(=O)N1[C@H](C(=O)N[C@@H](Cc2ccc(I)cc2)C(=O)N2CCC[C@H]2C(=O)N[C@H](Cc2ccc(-c3ccccc3)cc2)C(=O)O)C[C@@H]2CCCC[C@@H]21 [compound 77] (Ac-[hArg][dR]QEP[dR][NMeL]SHKG[Oic][Phe(4-I)]P[dBip]-OH) | – | – | – | – | 4.92 | – | 2.85 |
| CCCCCCCCCCCCCCCC(=O)N[C@@H](CCC(=O)NCCOCCOCC(=O)NCCOCCOCC(=O)N[C@H](CCC(N)=O)C(=O)N[C@@H](CCCNC(=N)N)C(=O)N1CCC[C@H]1C(=O)N(C)[C@@H](CCCNC(=N)N)C(=O)N[C@@H](CC1CCCCC1)C(=O)N[C@@H](CO)C(=O)N[C@@H](Cc1c[nH]cn1)C(=O)N[C@@H](CCCN)C(=O)NCC(=O)N1[C@H](C(=O)N[C@@H](CCCC)C(=O)N2CCC[C@H]2CC(=O)N[C@@H](CC(=O)O)Cc2ccccc2)C[C@@H]2CCCC[C@@H]21)C(=O)O [compound 618] ({Palmitoyl-γGlu-AEEA-AEEA}-[dQ]RP[NMeR][Cha]SH[Orn]G[Oic][Nle][β3hP][d(β3hF)]-OH) | – | – | – | – | 2.47 | – | 11.1 |
| CCCCCCCCCCCCC(=O)N[C@@H](CCC(=O)NCCOCCOCC(=O)NCCOCCOCC(=O)N[C@@H](CCCC)C(=O)N[C@H](CCCNC(=N)N)C(=O)N[C@@H](CCC(N)=O)C(=O)N[C@@H](CCCCNC(=N)N)C(=O)N1CCC[C@H]1C(=O)N[C@H](CCCNC(=N)N)C(=O)N(C)[C@@H](CC(C)C)C(=O)N[C@@H](CO)C(=O)N[C@@H](Cc1c[nH]cn1)C(=O)N[C@@H](CCCCN)C(=O)NCC(=O)N1[C@H](C(=O)N[C@@H](Cc2ccc(I)cc2)C(=O)N2CCC[C@H]2C(=O)N[C@H](Cc2ccc(-c3ccccc3)cc2)C(=O)O)C[C@@H]2CCCC[C@@H]21)C(=O)O [compound 314] ({Tridecanoyl-γGlu-AEEA-AEEA}-[Nle][dR]Q[hArg]P[dR][NMeL]SHKG[Oic][Phe(4-I)]P[dBip]-OH) | – | > 90 | 71 | 77.5 | 2.77 | – | – |
| CCCCCCCCCCCCC(=O)N[C@@H](CCC(=O)NCCOCCOCC(=O)NCCOCCOCC(=O)N[C@H](CCC(N)=O)C(=O)N[C@@H](CCCCNC(=N)N)C(=O)N1CCC[C@H]1C(=O)N(C)[C@@H](CCCNC(=N)N)C(=O)N[C@@H](CC1CCCCC1)C(=O)N[C@@H](CO)C(=O)N[C@@H](Cc1c[nH]cn1)C(=O)N[C@@H](CCCCN)C(=O)NCC(=O)N1[C@H](C(=O)N[C@@H](CCCC)C(=O)NCCC(=O)N[C@H](Cc2ccc(Cl)cc2)C(=O)O)C[C@@H]2CCCC[C@@H]21)C(=O)O [compound 295] ({Tridecanoyl-γGlu-AEEA-AEEA}-[dQ][hArg]P[NMeR][Cha]SHKG[Oic][Nle][βAla][dPhe(4-Cl)]-OH) | 3.29 | – | – | – | – | 10.4 | – |
| CCCCCCCCCCCCCCCC(=O)N[C@@H](CCC(=O)NCCOCCOCC(=O)NCCOCCOCC(=O)N[C@H](CCC(N)=O)C(=O)N[C@@H](CCCNC(=N)N)C(=O)N1CCC[C@H]1C(=O)N(C)[C@@H](CCCNC(=N)N)C(=O)N[C@@](C)(CC(C)C)C(=O)N[C@@H](CO)C(=O)N[C@@H](CN)C(=O)N[C@@H](CCCCN)C(=O)NCC(=O)N1[C@H](C(=O)N[C@@H](CCCC)C(=O)N2CCC[C@H]2CC(=O)N[C@@H](Cc2ccc(Cl)cc2)C(=O)O)C[C@@H]2CCCC[C@@H]21)C(=O)O [compound 630] ({Palmitoyl-γGlu-AEEA-AEEA}-[dQ]RP[NMeR][αMeL]S[Dap]KG[Oic][Nle][β3hP][Phe(4-Cl)]-OH) | – | – | – | – | 0.203 | – | 0.486 |
| CCCCCCCCCCCCCCCC(=O)N[C@@H](CCC(=O)NCCOCCOCC(=O)NCCOCCOCC(=O)N[C@H](CCC(N)=O)C(=O)N[C@@H](CCCNC(=N)N)C(=O)N1CCC[C@H]1C(=O)N(C)[C@@H](CCCNC(=N)N)C(=O)N[C@@H](CC1CCCCC1)C(=O)N[C@@H](CO)C(=O)N[C@@H](Cc1c[nH]cn1)C(=O)N[C@H](C(=O)NCC(=O)N1[C@H](C(=O)N[C@@H](CCCC)C(=O)N2CCC[C@H]2CC(=O)N[C@@H](CC(=O)O)Cc2ccccc2)C[C@@H]2CCCC[C@@H]21)C1Cc2ccccc2C1)C(=O)O [compound 625] ({Palmitoyl-γGlu-AEEA-AEEA}-[dQ]RP[NMeR][Cha]SH[Igl]G[Oic][Nle][β3hP][d(β3hF)]-OH) | – | – | – | – | 11.1 | – | 20.1 |
| CC(=O)N[C@@H](CCCCNC(=N)N)C(=O)N[C@H](CCCNC(=N)N)C(=O)N[C@@H](CCC(N)=O)C(=O)N[C@@H](CCCCNC(=N)N)C(=O)N1CCC[C@H]1C(=O)N[C@H](CCCNC(=N)N)C(=O)N(C)[C@@H](CC(C)C)C(=O)N[C@@H](CO)C(=O)N[C@@H](Cc1c[nH]cn1)C(=O)N[C@@H](CCCCN)C(=O)NCC(=O)N[C@@H](CCC(=O)O)C(=O)N[C@@H](Cc1ccc(I)cc1)C(=O)N1CCC[C@H]1C(=O)N[C@H](Cc1ccc(-c2ccccc2)cc1)C(=O)O [compound 85] (Ac-[hArg][dR]Q[hArg]P[dR][NMeL]SHKGE[Phe(4-I)]P[dBip]-OH) | – | – | – | – | > 4170 | – | > 4170 |
